In PMC8443589, “Modelling human liver fibrosis in the context of non-alcoholic steatohepatitis using a microphysiological system” (Communications Biology, 2021):

Tested on: liver MPS NASH model + TGFβ (PHH, KC and HSC co-cultures, high fat)
Assay: Secreted cytokine profile of enhanced liver MPS NASH model with TGFβ dosed with OCA or ELF (Fig 6a)
Assay type: cell-based, human
Details: for IL-1RA production, fold change compared to control / IL-4 production, fold change compared to control / IL-6 production, fold change compared to control / IL-8 production, fold change compared to control / IP-10 production, fold change compared to control / MCP-1 production, fold change compared to control / MIP-1a production, fold change compared to control / MIP-1b production, fold change compared to control / VEGF production, fold change compared to control: vs NASH + TGFβ control
Excerpt: The systems biology approach identified TGFβ to be a key driver in creating a more advanced NASH phenotype in the MPS model, with enhanced fibrotic markers and reduced liver function. […] Therefore, we explored how effective pharmacological intervention would be for NASH microtissues with high NPC numbers supplemented with TGFβ and exposed them to varying concentrations of OCA and ELF QD as previously described (Supp. Fig. 6a). […] OCA had the greatest effect on IL-1Rα whereas ELF had the greatest effect on MCP-1 reflecting the fact that while both candidate drugs have anti-inflammatory properties, but their mechanisms of action are different. […] Finally, we used our quantitative fibrosis imaging assay to assess the effect of each candidate drug on collagen-1 deposition and α-SMA expression (Fig. 6c). […] Both candidate drugs caused a significant reduction in collagen-1 deposition and α-SMA expression, with the highest concentrations of OCA and ELF causing an 80% reduction in α-SMA expression and a 75% reduction in collagen-1 deposition (Fig. 6c).
Fig. 6 Using enhanced liver MPS NASH model with TGFβ, Obeticholic acid and Elafibranor modulate disease phenotype to a greater extent than in standard NASH model. PHH, KC and HSC co-cultures were cultured in the MPS platform under high-fat conditions and dosed with varying concentrations of Obeticholic acid (OCA) and Elafibranor (ELF) QD or vehicle control for 10 days, following an initial 4-day pre-culture phase. Throughout the compound dosing period TGFβ was also dosed onto all microtissues (NASH only vehicle control samples were also included in the study for comparison, which were not treated with TGFβ or dosed with any compound). a The secreted cytokine profile from treated liver microtissues was compared to determine the effects of each compound on the inflammatory profile of the liver with samples analysed at day 8 and 14 of the culture. Data were normalised by Z-transformation to allow comparison of all analytes (white = undetected). b The expression of fibrosis-associated biomarkers was analysed on day 14 media samples and compared to NASH + TGFβ control samples. c Liver microtissues were stained for collagen-type I, α-SMA, nuclei (DAPI), phalloidin (green) and imaged by confocal microscopy. Representative images are shown and scale bars 200 µm. Staining of microtissues was quantified by measuring total fluorescence intensity throughout individual microtissues, each data point represents an average of all microtissues per MPS culture (min 8, max 20). All datapoints shown with error bars highlighting means ± SD, all data from a minimum of three independent cultures: all comparisons were made to NASH + TGFβ control samples.
Cytokine profiles in cell culture medium samples were also analysed by Luminex array for determination of 38 analytes in total, consisting of cytokines, chemokines, and growth factors using the MILLIPLEX MAP Human Cytokine/Chemokine Magnetic Bead Panel - Premixed 38 Plex (Merck Millipore, USA).
Liver microtissues were cultured for 4 days in HEP-FAT medium, before dosing with obeticholic acid or elafibranor. Both compounds were dissolved in DMSO, diluted in cell culture medium (final DMSO concentration ≤1%) and added to microtissues during a full medium change every two days and in addition on the intervening days compounds were spiked into the media to increase drug concentration back to desired concentrations. Cultures were maintained in the presence of the compound, for a total of 10 days in the presence or absence of TGFβ.

CSc1ccc(C(=O)/C=C/c2cc(C)c(OC(C)(C)C(=O)O)c(C)c2)cc1 [Elafibranor]
IL-1RA production, fold change compared to control (1.3 µM, Day 8): 0.9952 fold change
IL-4 production, fold change compared to control (1.3 µM, Day 8): 1.184 fold change
IL-6 production, fold change compared to control (1.3 µM, Day 8): 1.1389 fold change
IL-8 production, fold change compared to control (1.3 µM, Day 8): 1.023 fold change
IP-10 production, fold change compared to control (1.3 µM, Day 8): 1.0718 fold change
MCP-1 production, fold change compared to control (1.3 µM, Day 8): 1.264 fold change
MIP-1a production, fold change compared to control (1.3 µM, Day 8): 0.709 fold change
MIP-1b production, fold change compared to control (1.3 µM, Day 8): 0.6796 fold change
VEGF production, fold change compared to control (1.3 µM, Day 8): 1.105 fold change
IL-1RA production, fold change compared to control (1.3 µM, Day 14): 0.9067 fold change
IL-4 production, fold change compared to control (1.3 µM, Day 14): 0.6872 fold change
IL-6 production, fold change compared to control (1.3 µM, Day 14): 0.5754 fold change
IL-8 production, fold change compared to control (1.3 µM, Day 14): 0.6606 fold change
IP-10 production, fold change compared to control (1.3 µM, Day 14): 1.038 fold change
MCP-1 production, fold change compared to control (1.3 µM, Day 14): 0.8586 fold change
MIP-1a production, fold change compared to control (1.3 µM, Day 14): 0.6631 fold change
VEGF production, fold change compared to control (1.3 µM, Day 14): 1.4873 fold change
IL-1RA production, fold change compared to control (13 µM, Day 8): 1.265 fold change
IL-4 production, fold change compared to control (13 µM, Day 8): 0.7184 fold change
IL-6 production, fold change compared to control (13 µM, Day 8): 1.361 fold change
IL-8 production, fold change compared to control (13 µM, Day 8): 0.9806 fold change
IP-10 production, fold change compared to control (13 µM, Day 8): 0.6298 fold change
MCP-1 production, fold change compared to control (13 µM, Day 8): 0.7964 fold change
MIP-1a production, fold change compared to control (13 µM, Day 8): 0.7122 fold change
MIP-1b production, fold change compared to control (13 µM, Day 8): 0.7615 fold change
VEGF production, fold change compared to control (13 µM, Day 8): 1.5043 fold change
IL-1RA production, fold change compared to control (13 µM, Day 14): 1.13 fold change
IL-4 production, fold change compared to control (13 µM, Day 14): 0.4238 fold change
IL-6 production, fold change compared to control (13 µM, Day 14): 0.6467 fold change
IL-8 production, fold change compared to control (13 µM, Day 14): 0.4814 fold change
IP-10 production, fold change compared to control (13 µM, Day 14): 0.5019 fold change
MCP-1 production, fold change compared to control (13 µM, Day 14): 0.7625 fold change
MIP-1a production, fold change compared to control (13 µM, Day 14): 0.5355 fold change
VEGF production, fold change compared to control (13 µM, Day 14): 3.124 fold change
IL-1RA production, fold change compared to control (65 µM, Day 8): 0.4291 fold change
IL-4 production, fold change compared to control (65 µM, Day 8): 0.5702 fold change
IL-6 production, fold change compared to control (65 µM, Day 8): 0.5734 fold change
IL-8 production, fold change compared to control (65 µM, Day 8): 0.6965 fold change
IP-10 production, fold change compared to control (65 µM, Day 8): 0.5276 fold change
MCP-1 production, fold change compared to control (65 µM, Day 8): 0.2341 fold change
MIP-1a production, fold change compared to control (65 µM, Day 8): 0.4239 fold change
VEGF production, fold change compared to control (65 µM, Day 8): 1.511 fold change
IL-1RA production, fold change compared to control (65 µM, Day 14): 0.4779 fold change
IL-4 production, fold change compared to control (65 µM, Day 14): 0.2046 fold change
IL-6 production, fold change compared to control (65 µM, Day 14): 0.3326 fold change
IL-8 production, fold change compared to control (65 µM, Day 14): 0.254 fold change
IP-10 production, fold change compared to control (65 µM, Day 14): 0.6289 fold change
MCP-1 production, fold change compared to control (65 µM, Day 14): 0.1593 fold change
VEGF production, fold change compared to control (65 µM, Day 14): 2.734 fold change
cytokine on which the drug had the greatest effect (NASH microtissues, high NPC, + TGFβ): MCP-1
